Laboratory results as given in patent publication US8088412B2, “Intralymphatic chemotherapy drug carriers” (priority 2008, dated 2012).

Tests used:
[1] = set-up: species or system Sprague-Dawley rats; details: rat, in vivo, sc
Protocol: Sprague-Dawley rats (female, 200-250 g) were cannulated in the left jugular vein under isoflurane and allowed to recover overnight. […] Subcutaneous injections were given in the uppermost right mammary fatpad of the animal. Whole blood was withdrawn (100 μl) from the cannula at 0, 5 min, 0.5, 1, 2, 4, 6, 12, 24, 48 and 96 hrs after dosing and placed into 2-ml centrifuge tubes pretreated with heparin. The cannula was washed before and after withdrawal with saline and then heparin locked. The whole blood was centrifuged at 17,000×g for 5 mins, and the plasma was frozen at −80° C. until analysis. Animals were euthanized […]. The right ipsilateral axilla nodes (treated side), left contralateral axilla nodes (control side), and major organs (liver, kidneys, heart, spleen, lungs, brain, muscle, bladder) were excised; washed with 0.9% saline; and stored at −80° C. until analysis. […] Typically, 50 mg of tissue sample was digested using 1.5 ml of 6.7% nitric acid for 2 hours at 80° C. After digestion, samples were homogenized (Tissue Tearor; BioSpec Products Inc., Bartlesville, Okla.) and centrifuged. The supernatant and plasma samples were analyzed by AAS as described in the Synthesis section.
In vitro release samples (n=3) and plasma samples (n=5) were diluted 200-fold and 10-fold, respectively, with 0.1% nitric acid for analysis. […]

MDA-1986 = test: MTS cell viability assay, 72 hours; assay type: cell-based, human; details: 10 nM to 100 micromolar
Protocol: (§1) To evaluate the anticancer, specifically antiproliferative, effects of HA-cisplatin compared to standard CDDP in vitro in two human head and neck squamous cell carcinoma cell lines (JMAR and MDA-1986) a standard MTS assay was performed as per the manufacturer's specified protocol.
(§2) Once 75% confluent, cells were trypsinized (0.25% trypsin), counted and plated in 96-well microtiter plates (Costar, Cambridge, Mass., USA) (1×10^3 cells/well) in 100 μL of growth media. After an overnight attachment period, cells were exposed to varying concentration of […] for 3 days. All studies were performed in triplicate and repeated at least three times independently. After the 3-d treatment period, the number of viable cells was determined using a colorimetric Cell Proliferation assay (CellTiter96 Aqueous Nonradioactive Cell Proliferation assay; Promega, Madison Wis., USA), which measures the bioreduction of the MTS (3-[4,5-dimethylthiazol-2yl]-5-[3-carboxymethoxyphenyl]-2-[4-sulfophenyl]-2H tetrazolium) by dehydrogenase enzymes of metabolically active cells into soluble formazon product, in the presence of the electron coupling reagent PMS (phenazine methosulfate). To perform the assay, 20 μL of combined MTS/PMS solution containing 2 mg/mL MTS and 150 μM PMS in buffer (0.2 g/L KCl, 8.0 g/L NaCl, 0.2 g/L KH2PO4, 1.15 g/L, […] CaCl2-2H2O, […], MgCl2.6H2O, pH 7.35) was added to each well and then after 3 hr of incubation at 37° C. in a humidified 5% CO2 atmosphere, absorbance was measured at 490 nm in microplate reader. Triplicate wells with predetermined cell numbers were subjected to the above assay in parallel with the test samples to normalize the absorbance readings; this also provided internal confirmation that the assay was linear over the range of absorbance and cell numbers measured. Data was plotted as a function of % viability from controls (cell viability) vs. drug concentration (x-axis).

JMAR = test: MTS cell viability assay, 72 hours; assay type: cell-based, human; details: 10 nM to 100 micromolar
Protocol: as §1, §2

[2] = Long-term toxicology: urine creatinine; assay type: in vivo, Sprague-Dawley rats; details: 3.3 mg/kg subcutaneous, single dose
Protocol: Each animal was administered a single bolus dose at the beginning of the 30-day study period. […] Urine samples were centrifuged at 17,000×g for 5 mins and stored in −80° C. freezer until creatinine analysis.
Urine creatinine was analyzed using the QuantiChrom™ Creatinine Assay Kit according to the manufacturer's instructions (BioAssay Systems, Hayward, Calif.). Creatinine concentration of the sample was calculated as (ODSAMPLE 5-ODSAMPLE 1) (ODSTD 5-ODSTD 1)×[STD] (mg/dL). ODSAMPLE5 ODSAMPLE1, ODSTD5, and ODSTD1 are OD510nm values of sample and standard at 5 min and 1 min, respectively.

[3] = tested on: three aggressive human breast cancer cell lines; test: Cell proliferation, Alamar blue assay, 72 hrs; assay type: cell-based; details: breast cancer cells in culture
Protocol: The 10% w/w conjugate was applied to cells, and 72 hrs later, cell proliferation was determined using the Alamar blue assay (Invitrogen Corp.). […] Similarly, cisplatin conjugates were applied to breast cancer cells in culture. […] This may be due release of anticancer drugs from nanocarriers into the culture media, followed by uptake as with free drug.

[4] = tested on: MDA-MB-468LN human breast cancer cells; test: Tumor response, breast lymphatic tumor xenograft; assay type: in vivo, Nude nu/nu mice
Protocol: Nude nu/nu mice were implanted with 1×10^6 cells (MDA-MB-468LN human breast cancer cells) into the mammary fatpad, after approximately 4 weeks a 100-200 mm^3 tumor had developed in the axillary lymph node package. Animals were randomly divided into four treatment groups of five animals each: intravenous saline, s.q. HA, intravenous cisplatin, or s.q. HA-cisplatin. At this point, doses were administered to the animals. In the HA-cisplatin and the HA groups, HA-cisplatin (3.3 mg/kg based on Pt-content) or HA (3.3 mg/kg) was dissolved in 100 mcL saline was injected subcutaneously peritumorally. […] In all study groups, a second dose was administered after 1 week. Tumor volumes were measured weekly using calipers and the formula: Volume=0.52×(width^2*length). Animals were euthanized when the tumor volume exceeded […] or the body score index fell below 2.

Substance: [PtCl(H2O)(NH3)2]OOCO-HA [HA-cisplatin]
- delay before plasma platinum peaked and plateaued-off [1]: 2 h
- IC50 level compared with CDDP (MDA-1986): no significant difference
- IC50 level compared with CDDP (MDA-1986; listed as HA-Cisplatin): very similar
- IC50 level compared with CDDP (JMAR): no significant difference
- IC50 level compared with CDDP (JMAR; listed as HA-Cisplatin): very similar
- urine creatinine levels [2]: remained near pre-dosing levels
- anticancer activity compared with free cisplatin [3]: not significantly different from free cisplatin
- tumor growth delay compared to negative control group ([4]; 3.3 mg/kg (Pt) subcutaneously peritumorally, second dose after 1 week): 5 weeks
- toxicity in treated tumor-bearing animals ([4]; 3.3 mg/kg subcutaneously peritumorally, two doses): no toxicity was observed
